Experimental data taken from US20060020110A1, “Synthetic peptides that bind to the hepatitis B virus core and E antigens” (priority 2000, published 2006).

Legend:
HBcAg [1] = target: T1, HBcAg (Hepatitis B virus genotype D subtype ayw, UniProt P03146); conditions: for OD at 490 nm, HBcAg binding to support-bound amino terminal deletion peptides: HBcAg added at 5 μg/ml; for OD at 405 nm to indicated antigen: HBcAg 0.2 μg/well / OD at 405 nm to indicated antigen: HBcAg 2 μg/well: support-bound peptide
Text: (§1) One approach to rational drug design involves sequential amino acid deletion of a known binding partner starting from either the amino or carboxy termini. Amino-terminal deletions of the binding partners of SEQ. ID. Nos. 5 and 17 were made and these peptide fragments were joined to a support and analyzed for the ability to bind HBcAg. […] ID. […] The amino-terminal deletions of the peptide of SEQ. ID. […] The amino-terminal deletion products of the peptide of SEQ. ID. […] ID.
To determine whether a candidate binding partner bound to HBcAg and/or HbeAg, a multimeric support-based binding assay was performed. Accordingly, synthetic peptides corresponding to the VH and VL domains of the sequenced mAbs were passively adsorbed to 96 well microplates in serial dilutions starting at 200 μg/ml. The peptide coated plates were then incubated with HBcAg and HBeAg serially diluted in PBS-GT. The amount of HBcAg and HBeAg bound by the peptides was then detected using a mAb directed to an epitope common to HBcAg and HBeAg (See Sällberg et al., J General Virology 74:1335-1340 (1993), herein expressly incorportaed by reference in its entirety) diluted 1:3000 in PBS-GT. The quantity of bound mAb was determined by addition by peroxidase labeled rabbit anti-mouse IgG (P260, Dako A S, Denmark). The plates were developed by incubation with ortho-phenylene-diamine (Sigma) and the absorbance at 492 nm was evaluated.
The converse of an aspect of this experiment was also performed. That is, various dilutions of support-bound binding partners (SEQ. ID. Nos. 5, 16, 17, 28, and 29) were contacted with 10 μg/ml of HBcAg and binding was evaluated. ID.

HBcAg [2] = target: T1, HBcAg; conditions: for OD at 490 nm, bound peptide SEQ. ID. No. 74: HBcAg coated 1 μg/ml, 5 μg SEQ. ID. No. 74 + 5 μg HBcAg peptide, no inhibitor OD 1.454; for Std. Deviation from the mean: deviation of the OD from the mean OD of all peptides
Protocol: In this experiment, microplates were coated overnight with 1 μg/ml HBcAg and, subsequently, a 100 μl mixture containing 5 μg of the peptide […] […] The HBcAg peptides were approximately 20 amino acids in length and corresponded to regions of HBcAg spanning amino acid residues 11-183. The experiment was performed in triplicate.

HBcAg [3] = target: T1, HBcAg; conditions: peptide added prior to addition of mAb; uninhibited control mean OD 0.871
Text: as §1
Variations of the characterization assays described above include competitive binding assays. […] Initial experiments were conducted by contacting binding partner to HBcAg prior to introducing the antibody. […] ID. […] ID. […] ID. […] ID. […] ID. […] ID.

mAb specific for HSV gG2 = experiment: gG2 mAb binding to fusion peptide on solid phase; conditions: no addition of fusion peptide in solution
Text: (§2) ID. […] The specificity exchangers provided in SEQ. ID. […] Similarly, the specificity exchangers provided in SEQ. ID.

HBcAg [4] = target: T1, HBcAg; conditions: fusion peptide in solution 20 μg/well
Protocol: To evaluate the efficacy of the specificity exchangers described above, several binding assays using a mAb specific for HSV gG2 were conducted. In one assay, the various specificity exchangers were coated onto microtiterplates and were bound with the mAb specific for HSV gG2. […] ID. […] In another assay, HBcAg was coated onto microtiter plates, specificity exchanger was added (20 μg/well), and the binding of the mAb specific for HSV gG2 was determined. […] ID. […] In another binding assay, HBeAg was coated onto microtiter plates, specificity exchanger was added (20 μg/well), and the binding of the mAb specific for HSV gG2 was determined. […] ID. […] The characterization assays used to evaluate binding partners can also be used and/or modified for the analysis of the specificity exchangers.

HBeAg = target: T2, HBeAg (Hepatitis B virus genotype D subtype ayw, UniProt P0C573); experiment: Redirection of HSV gG2 mAb to HBeAg on solid phase by fusion peptide in solution; format: binding; conditions: fusion peptide in solution 20 μg/well
T2 construct: containing nine residues of pre-core and the 150 first residues of HBcAg; made in house
Text: as §2

T1 sequence (P03146 whole entry, the tested form may be a part): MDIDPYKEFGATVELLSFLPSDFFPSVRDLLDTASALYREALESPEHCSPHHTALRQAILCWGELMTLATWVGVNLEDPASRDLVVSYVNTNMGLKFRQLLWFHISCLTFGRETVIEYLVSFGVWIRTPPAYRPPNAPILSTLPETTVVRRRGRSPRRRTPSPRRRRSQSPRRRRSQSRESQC
T2 sequence (P0C573 21-179): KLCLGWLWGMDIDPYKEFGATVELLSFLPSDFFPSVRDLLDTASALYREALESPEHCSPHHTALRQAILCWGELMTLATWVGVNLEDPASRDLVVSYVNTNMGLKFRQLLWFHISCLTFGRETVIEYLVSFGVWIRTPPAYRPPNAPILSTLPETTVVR

| Sequence | OD at 490 nm, HBcAg binding to support-bound amino terminal deletion peptides (HBcAg [1]) | OD at 490 nm, bound peptide SEQ. ID. No. 74 (HBcAg [2]) | Std. Deviation from the mean (HBcAg [2]) | further results |
| --- | --- | --- | --- | --- |
| SSYSYMHWY [SEQ. ID. No. 63] | 0.311 |  |  |  |
| CWGELMTLATWVGVNLEDPA [SEQ. ID. No. 101] |  | 1.395 | 0.712 |  |
| STSSYSYMHWY [SEQ. ID. No. 61] | 0.372 |  |  |  |
| SCKASGYIFTS [SEQ. ID. No. 47] | 0.297 |  |  | OD at 490 nm, mAb 4-2 binding to HBcAg (HBcAg [3]): 0.784 |
| SDFFPSVRDLLDTASALYRE [SEQ. ID. No. 97] |  | 1.576 | 1.077 |  |
| CRASQSVSTSSYSYMHWY [SEQ. ID. No. 54] | 1.415 |  |  |  |
| TSSYSYMHWY [SEQ. ID. No. 62] | 0.317 |  |  |  |
| LWFHISCLTFGRETVIEYLV [SEQ. ID. No. 105] |  | 1.129 | .175 |  |
| QSVSTSSYSYMHWY [SEQ. ID. No. 58] | 0.282 |  |  |  |
| ATVELLSFLPSDFFPSVRDL [SEQ. ID. No. 96] |  | 1.387 | 0.696 |  |
| KPGASVKLSCKASGYIFTS [SEQ. ID. No. 39] | 1.337 |  |  | OD at 490 nm, mAb 4-2 binding to HBcAg (HBcAg [3]): 0.202 |
| KLSCKASGYIFTSRGGPEEFE [SEQ. ID. No. 72] |  |  |  | gG2 mAb binding to indicated antigen on solid phase: fusion peptide (mAb specific for HSV gG2): 0.062; gG2 mAb binding to indicated antigen on solid phase: HBcAg (HBcAg [4]): 0.016; gG2 mAb binding to indicated antigen on solid phase: HBeAg (HBeAg): 0.040 |
| GRETVIEYLVSFGVWIRTPP [SEQ. ID. No. 106] |  | 0.832 | −0.423 |  |
| PSPRRRRSQSPRRRRSQSRESQC [SEQ. ID. No. 111] |  | 0.678 | −0.734 |  |
| SVSTSSYSYMHWY [SEQ. ID. No. 59] | 0.305 |  |  |  |
| LVTVSAAKTTPPSVYPLVPV (Synthetically prepared amino acid sequence) [Peptide 35] |  |  |  | OD at 405 nm to indicated antigen: HBcAg 0.2 μg/well (HBcAg [1]): 0.198; OD at 405 nm to indicated antigen: HBcAg 2 μg/well (HBcAg [1]): 0.59 |
| YDIDWVRQTPEQGLEWIGWI (Synthetically prepared amino acid sequence) [Peptide 4] |  |  |  | OD at 405 nm to indicated antigen: HBcAg 0.2 μg/well (HBcAg [1]): 0.202; OD at 405 nm to indicated antigen: HBcAg 2 μg/well (HBcAg [1]): 0.551 |
| KLSCKASGYIFTS [SEQ. ID. No. 45] | 3.694 |  |  | OD at 490 nm, mAb 4-2 binding to HBcAg (HBcAg [3]): 0.808 |
| ASVKLSCKASGYIFTS [SEQ. ID. No. 42] | 3.219 |  |  | OD at 490 nm, mAb 4-2 binding to HBcAg (HBcAg [3]): 0.207 |
| STLPETTVVRRRGRSPRRRT [SEQ. ID. No. 109] |  | 0.811 | −0.466 |  |
| SCRASQSVSTSSYSYMHWY [SEQ. ID. No. 53] | 1.452 |  |  |  |
| PGASVKLSCKASGYIFTS [SEQ. ID. No. 40] | 1.722 |  |  | OD at 490 nm, mAb 4-2 binding to HBcAg (HBcAg [3]): 0.182 |
| LDTASALYREALESPEHCSP [SEQ. ID. No. 98] |  | 1.589 | 1.103 |  |
